The source of these data is patent US11981661B2, “Heterocyclic compounds” (Hoffmann-La Roche Inc., priority 2020, dated 2024).

Each structure is given as a SMILES string.

The target of this test is T1, MAGL (Homo sapiens, UniProt Q99685).
T1 sequence (Q99685 1-303): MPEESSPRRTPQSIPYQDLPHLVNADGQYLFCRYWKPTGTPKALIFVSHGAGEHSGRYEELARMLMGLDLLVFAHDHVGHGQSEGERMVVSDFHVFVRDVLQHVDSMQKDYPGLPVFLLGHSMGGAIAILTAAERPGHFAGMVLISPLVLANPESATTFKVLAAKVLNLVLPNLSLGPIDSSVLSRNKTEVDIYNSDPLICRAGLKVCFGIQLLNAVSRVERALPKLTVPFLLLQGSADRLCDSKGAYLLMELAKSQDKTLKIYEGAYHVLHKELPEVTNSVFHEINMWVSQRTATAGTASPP
The experiment in a line: 2-AG assay (MAGL inhibitory activity, hydrolysis of 2-arachidonoylglycerol followed by mass spectrometry). It is filed as biochemical. The settings on record: 50 pM MAGL, 8 μM 2-arachidonoylglycerol, 15 min preincubation, 30 min incubation at RT, concentration range 12.5 μM to 0.8 pM. The procedure, abridged:
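Activity derived from the arachidonic acid/d8-arachidonic acid MS intensity ratio after acetonitrile quench. Reaction: 8 μM 2-AG substrate with 50 pM MAGL, 30 min at RT, following 15 min RT compound preincubation; buffer 50 mM TRIS, 1 mM EDTA, 0.01% Tween; final compound range 12.5 μM to 0.8 pM.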
As a reminder, the IC50 is the concentration that gives 50% inhibition. Low readings indicate greater potency, high ones weaker potency. On to `O=C1N[C@H](COC(=O)N2CC(c3ccc(C4(C(F)(F)F)CC4)cc3)C2)CO1` [Example 56, [(4S)-2-Oxooxazolidin-4-yl]methyl 3-[4-[1-(trifluoromethyl)cyclopropyl]phenyl] azetidine-1-carboxylate], for which the IC50 is 5 nM.
For `O=C1N[C@H](COC(=O)N2CC3(CC(Cc4ccc(F)cc4F)C3)C2)CO1` [Example 57, [(4S)-2-Oxooxazolidin-4-yl]methyl 6-[(2,4-difluorophenyl)methyl]-2-azaspiro[3.3]heptane-2-carboxylate] the value was 2 nM; for `O=C1N[C@H](COC(=O)N2CC(c3ccc(Oc4ccc(F)cc4)cc3)C2)CO1` [Example 58, [(4S)-2-Oxooxazolidin-4-yl]methyl 3-[4-(4-fluorophenoxy)phenyl]azetidine-1-carboxylate], 4 nM; for `O=C1N[C@@H](COC(=O)N2CC3(CC(Cc4ccc(F)cc4F)C3)C2)CO1` [Example 59, [(4R)-2-Oxooxazolidin-4-yl]methyl 6-[(2,4-difluorophenyl)methyl]-2-azaspiro[3.3]heptane-2-carboxylate], 2 nM.
The value for `O=C1N[C@H](COC(=O)N2CC(c3ccc(Oc4ccccc4Cl)nc3)C2)CO1` [Example 60, [(4S)-2-Oxooxazolidin-4-yl]methyl 3-[6-(2-chlorophenoxy)-3-pyridyl]azetidine-1-carboxylate] was 33 nM; that for `O=C1N[C@H](COC(=O)N2CC(C#Cc3ccccc3C(F)F)C2)CO1` [Example 61, [(4S)-2-Oxooxazolidin-4-yl]methyl 3-[2-[2-(difluoromethyl)phenyl]ethynyl] azetidine-1-carboxylate] was 13 nM.
For `O=C1N[C@H](COC(=O)N2CC(c3ccc(N4CCC(C(F)(F)F)C4)nc3)C2)CO1` (stereo partly drawn) [Example 62, [(4S)-2-Oxooxazolidin-4-yl]methyl 3-[6-[3-(trifluoromethyl)pyrrolidin-1-yl]-3-pyridyl]azetidine-1-carboxylate] the value was 26 nM.
The compound `O=C(OCCc1cnn[nH]1)N1CC(OCc2ccc(C(F)(F)F)cc2F)C1` [Example 63, 2-(1H-Triazol-5-yl)ethyl 3-[[2-fluoro-4-(trifluoro-methyl)phenyl]methoxy]azetidine-1-carboxylate] returned an IC50 of 19 nM.
The value for `O=C(NCCc1cnn[nH]1)N1CC(OCc2ccc(C(F)(F)F)cc2F)C1` [Example 64, 3-[[2-Fluoro-4-(trifluoromethyl)phenyl]methoxy]-N-[2-(1H-triazol-5-yl)ethyl]azetidine-1-carboxamide] was 93 nM; that for `CN(CCc1cnn[nH]1)C(=O)N1CC(c2ccc(C3(C(F)(F)F)CC3)cc2)C1` [Example 65, N-Methyl-N-[2-(1H-triazol-5-yl)ethyl]-3-[4-[1-(trifluoromethyl)cyclopropyl]phenyl] azetidine-1-carboxamide] was 2 nM; that for `CN(CCc1cnn[nH]1)C(=O)N1CC(OCc2ccc(C(F)(F)F)cc2F)C1` [Example 66, 3-[[2-Fluoro-4-(trifluoromethyl)phenyl]methoxy]-N-methyl-N-[2-(1H-triazol-5-yl)ethyl]azetidine-1-carboxamide] was 13 nM.
Compound `CN(CCc1cnn[nH]1)C(=O)N1CC(c2ccc(-c3ccc(S(C)(=O)=O)cc3Cl)cc2)C1` [Example 67, 3-[4-(2-Chloro-4-methylsulfonyl-phenyl)phenyl]-N-methyl-N-[2-(1H-triazol-5-yl)ethyl]azetidine-1-carboxamide] returned an IC50 of 27 nM.
As to `CC(CCc1cnn[nH]1)C(=O)N1CC(c2ccc(C3(C(F)(F)F)CC3)cc2)C1` (stereo not drawn) [Example 68, 2-Methyl-4-(1H-triazol-5-yl)-1-[3-[4-[1-(trifluoromethyl)cyclopropyl]phenyl]azetidin-1-yl]butan-1-one], the midpoint of inhibition, the IC50, lay at 59 nM.
As to `O=C(CC(O)Cc1cnn[nH]1)N1CC(c2ccc(C3(C(F)(F)F)CC3)cc2)C1` (stereo not drawn) [Example 69, 3-Hydroxy-4-(1H-triazol-5-yl)-1-[3-[4-[1-(trifluoromethyl)cyclopropyl]phenyl]azetidin-1-yl]butan-1-one], half-maximal inhibition (IC50) required 122 nM.
Turning to `O=C(C(F)CCc1cnn[nH]1)N1CC(c2ccc(C3(C(F)(F)F)CC3)cc2)C1` (stereo not drawn) [Example 70, 2-Fluoro-4-(1H-triazol-5-yl)-1-[3-[4-[1-(trifluoromethyl)cyclopropyl]phenyl]azetidin-1-yl]butan-1-one], the IC50 turned out to be 62 nM.
For `CN(c1ccccc1)c1ccc(C2CN(C(=O)CC[C@@H]3COC(=O)N3)C2)cc1` [Example 71, (4R)-4-[3-[3-[4-(N-Methylanilino)phenyl]azetidin-1-yl]-3-oxo-propyl]oxazolidin-2-one] the value was 1 nM.
The value for `CC(C)(C)c1ccc(C2CN(C(=O)CC[C@@H]3COC(=O)N3)C2)nc1` [Example 72, (4R)-4-[3-[3-(5-tert-Butyl-2-pyridyl)azetidin-1-yl]-3-oxo-propyl]oxazolidin-2-one] was 7 nM; that for `CS(=O)(=O)c1ccc(-c2ccc(C3CN(C(=O)CC[C@@H]4COC(=O)N4)C3)cc2)c(Cl)c1` [Example 73, (4R)-4-[3-[3-[4-(2-Chloro-4-methyl-sulfonyl-phenyl)phenyl]azetidin-1-yl]-3-oxo-propyl]oxazolidin-2-one] was 1 nM.
For the compound `O=C1N[C@H](CCC(=O)N2CC(c3ccc(S(=O)(=O)c4ccccc4)cc3)C2)CO1` [Example 74, (4R)-4-[3-[3-[4-(Benzenesulfonyl)phenyl]azetidin-1-yl]-3-oxo-propyl]oxazolidin-2-one], half-maximal inhibition (IC50) was put at 5 nM.
As for `N#CCS(=O)(=O)c1ccc(C2CN(C(=O)CC[C@@H]3COC(=O)N3)C2)cc1` [Example 75, 2-[4-[1-[3-[(4R)-2-Oxooxazolidin-4-yl]propanoyl]azetidin-3-yl]phenyl]sulfonyl-acetonitrile], the half-inhibitory concentration (IC50) is 57 nM.
For `O=C1N[C@H](CCC(=O)N2CC(c3ccc(S(=O)(=O)C(F)(F)F)cc3)C2)CO1` [Example 76, (4R)-4-[3-Oxo-3-[3-[4-(trifluoro-methylsulfonyl)phenyl]azetidin-1-yl]propyl]oxazolidin-2-one] the value was 81 nM.
The value for `O=C1N[C@H](CCC(=O)N2CC(c3ccc(S(=O)(=O)C4CCCCC4)cc3)C2)CO1` [Example 77, (4R)-4-[3-[3-(4-Cyclohexylsulfonyl-phenyl)azetidin-1-yl]-3-oxo-propyl] oxazolidin-2-one] was 35 nM; that for `N#CC1(c2ccc(C3CN(C(=O)CC[C@@H]4COC(=O)N4)C3)cn2)CCC1` [Example 78, 1-[5-[1-[3-[(4R)-2-Oxooxazolidin-4-yl]propanoyl]azetidin-3-yl]-2-pyridyl]cyclobutane-carbonitrile] was 981 nM; that for `Cc1ncccc1Oc1ccc(C2CN(C(=O)CC[C@@H]3COC(=O)N3)C2)cc1` [Example 79, (4R)-4-[3-[3-[4-[(2-Methyl-3-pyridyl)oxy]phenyl]azetidin-1-yl]-3-oxo-propyl]oxazolidin-2-one] was 33 nM.
In turn, `O=C1N[C@H](CCC(=O)N2CC(c3ccc(Oc4nccc(C5CC5)n4)cc3)C2)CO1` [Example 80, (4R)-4-[3-[3-[4-(4-Cyclopropyl-pyrimidin-2-yl)oxyphenyl]azetidin-1-yl]-3-oxo-propyl] oxazolidin-2-one] registered an IC50 of 27 nM.
For `CC(C)(C)Cn1nncc1-c1ccc(C2CN(C(=O)CC[C@@H]3COC(=O)N3)C2)cc1` [Example 81, (4R)-4-[3-[3-[4-[3-(2,2-Dimethyl-propyl)triazol-4-yl]phenyl]azetidin-1-yl]-3-oxo-propyl]oxazolidin-2-one] the value was 7 nM; for `CS(=O)(=O)c1cc(Cl)ccc1-c1ccc(C2CN(C(=O)CC[C@@H]3COC(=O)N3)C2)cc1` [Example 82, (4R)-4-[3-[3-[4-(4-Chloro-2-methyl-sulfonyl-phenyl)phenyl]azetidin-1-yl]-3-oxo-propyl]oxazolidin-2-one], 0.5 nM.
The compound `NC(=O)c1cc(Cl)ccc1Oc1ccc(C2CN(C(=O)CC[C@@H]3COC(=O)N3)C2)cn1` [Example 85, 5-Chloro-2-[[5-[1-[3-[(4R)-2-oxooxazolidin-4-yl]propanoyl]azetidin-3-yl]-2-pyridyl]oxy]benzamide] displayed an IC50 of 123 nM.
Consider `O=C1CSC[C@H](CCC(=O)N2CC(OCc3ccc(C(F)(F)F)cc3F)C2)N1` [Example 88, (5S)-5-[3-[3-[[2-Fluoro-4-(trifluoromethyl)phenyl]methoxy]azetidin-1-yl]-3-oxo-propyl]thiomorpholin-3-one], for which the IC50 was determined as 1300 nM.
Compound `O=C1N[C@H](CCC(=O)N2CC(c3ccc(N(CC4CC4)c4ccccc4)cc3)C2)CO1` [Example 89, (4R)-4-[3-[3-[4-[N-(Cyclopropylmethyl)anilino]phenyl]azetidin-1-yl]-3-oxo-propyl] oxazolidin-2-one] displayed an IC50 of 0.02 nM.
The value for `O=C1N[C@H](CCC(=O)N2CC(c3ccc(N(c4ccccc4)c4ccccc4)cc3)C2)CO1` [Example 90, (4R)-4-[3-Oxo-3-[3-[4-(N-phenylanilino)phenyl]azetidin-1-yl]propyl] oxazolidin-2-one] was 0.02 nM; that for `CC(C)(C)c1ccc(C2CN(C(=O)CC[C@@H]3COC(=O)N3)C2)cn1` [Example 91, (4R)-4-[3-[3-(6-tert-Butyl-3-pyridyl)azetidin-1-yl]-3-oxo-propyl]oxazolidin-2-one] was 357 nM; that for `COc1ccc(N(C)c2ccc(C3CN(C(=O)CC[C@@H]4COC(=O)N4)C3)cn2)nc1` [Example 92, (4R)-4-[3-[3-[6-[(5-Methoxy-2-pyridyl)-methyl-amino]-3-pyridyl]azetidin-1-yl]-3-oxo-propyl]oxazolidin-2-one] was 293 nM.
